Experimental data reported in patent publication US4826856A, “Calcium antagonistic dihydropyridine derivative” (Yason s.r.l., priority 1985, dated 1989).
Like-named read-outs stand apart in the source and are kept apart here.

What was measured:
[1] = tested on: Rat thoracic aorta; assay: Inhibition of the contractile response of rat thoracic aorta strips in vitro; conditions: for EC50: Rattus norvegicus
Experimental: 1. Inhibition of the contractile response of arterial vessels in vitro
Aortic strips (3 mm wide) were dissected from rat thoracic aorta and bathed in a Krebs-Henseleit solution bubbled with O2 :CO2 (95:5) at 38° C., under a tension of 2 g. After a 30-minutes stabilization period, a contraction was induced by adding either KCl (118 mM) or noradrenaline (10^-5 M.l^-1) in a calcium-free medium (Na EDTA 0.1 mM.l^-1) or noradrenaline (10^-5 M.l^-1) after readmission of calcium (CaCl2 1.25 mM.l^-1).

[2] = tested on: Sprague-Dawley rats; assay: Ventricular arrhythmias during coronary artery ligation period; assay type: in vivo, rat; design: EBs, mean value of indices + SEM / VT, mean value of indices + SEM / VF, mean value of indices + SEM: scale not given here
Experimental: (§1) Ventricular arrhythmias after coronary artery ligation in the acute phase or during the period of re-circulation
(§2) Sprague-Dawley rats were subjected to ligation of the left coronary artery according to the method of Clark et al. in J. Pharmacol. Methods 3, 357-368, 1980. The drugs were administered by gastric tube 30 minutes before the ligation. By means of a continuous electrocardiographic recording, the ventricular arrhythmias such as ectopic beats (EB), ventricular tachycardia (VT), ventricular fibrillation (VF) for 30 minutes after ligation, were recorded.

[3] = tested on: SHR aorta; assay: SHR aorta pretreatment study (PE or K+ contraction); design: species or system spontaneously hypertensive rat (SHR)
Experimental: 1.3. SHR aorta--Pretreatment study
SHR aorta were treated with either PE(1 μM) or high potassium (K^+, 80 mM) and the resulting contraction was allowed to sustain for 15 Minutes. After wash out and equilibration (1 hour), tissues were pretreated with a single concentration of either YS 201 or nifedipine. After a 30-minutes equilibration time, tissues were again challenged with either PE or K^+ and the resultant contraction compared to the initial contraction. Contractile effect was measured at 15 minutes after the addition of the agonist (PE or K^+).

[4] = Pharmacokinetics and bioavailability in dogs; assay type: in vivo; conditions: in vivo, 10 mg/kg, dog
Experimental: YS 201 hydrochloride was intravenously and orally administered to dogs at 1 and 10 mg/kg respectively.

[5] = tested on: post-oligoemic rats; assay: Transient cerebral oligoemia in the rat, cerebral water, K+ and Ca++ content; assay type: in vivo; conditions: for overall activity in cerebral oligoemia: p.o.
Experimental: Transient cerebral oligoemia in the rat
The method described by Borzeix in Circulation et Metabolisme du Cerveau 1, 63-79, John Libbey Eurotext Publ. […] The animals were treated by the oral route with the tested drugs twice a day, starting one hour after the ligation and for 3 days, in scalar doses.
The last dose, at the 71th hour after the occlusion, preceeded by one hour the sacrifice of the animal, whose brain was subjected to the determination of the H2 O, K^+ and Ca^++ content.

[6] = tested on: Sprague-Dawley rats; assay: Ventricular arrhythmias after re-circulation; assay type: in vivo, rat; conditions: 5 mg/kg p.o.
Experimental: as §1, §2

[7] = noradrenaline 10^-5 M.l^-1 after readmission of calcium (CaCl2 1.25 mM.l^-1), read-out: EC50, NA + Ca++ contraction, rat aorta
[8] = noradrenaline 10^-5 M.l^-1, calcium-free medium, read-out: EC50, NA - Ca++ contraction, rat aorta

CCOC(=O)C1=C(C)NC(C)=C(C(=O)OC)C1c1cccc([N+](=O)[O-])c1 (stereo not drawn) [nitrendipine]
EC50 [1, 7]: 100 µM | activity on contractions induced by noradrenaline in Ca++-free medium vs YS 201 ([1]; rat aorta): slightly more active than YS 201

COC(=O)C1=C(C)NC(C)=C(C(=O)OC)C1c1ccccc1[N+](=O)[O-] [nifedipine]
Death rate % ([2]; 1.0 mg/kg p.o.): 0% | EBs, mean value of indices + SEM ([2]; 1.0 mg/kg p.o.): 70.0 ± 24.72 | VF % ([2]; 1.0 mg/kg p.o.): 80% | VF, mean value of indices + SEM ([2]; 1.0 mg/kg p.o.): 1.1 ± 0.55 | VT, mean value of indices + SEM ([2]; 1.0 mg/kg p.o.): 4.4 ± 2.22 | Death rate % ([2]; 1.5 mg/kg p.o.): 20.0% | EBs, mean value of indices + SEM ([2]; 1.5 mg/kg p.o.): 40.5 ± 20.19 | VF % ([2]; 1.5 mg/kg p.o.): 60% | VF, mean value of indices + SEM ([2]; 1.5 mg/kg p.o.): 1.7 ± 0.77 | VT, mean value of indices + SEM ([2]; 1.5 mg/kg p.o.): 2.1 ± 1.75 | inhibition of K+-induced contractions, SHR aortic strips [3]: extremely potent inhibitors

COC(=O)C1=C(C)NC(C)=C(C(=O)OCCN(C)Cc2ccccc2)C1c1cccc([N+](=O)[O-])c1 (stereo not drawn) [nicardipine]
Death rate % ([2]; 0.5 mg/kg p.o.): 0% | EBs, mean value of indices + SEM ([2]; 0.5 mg/kg p.o.): 10.9 | VF % ([2]; 0.5 mg/kg p.o.): 66.7% | VF, mean value of indices + SEM ([2]; 0.5 mg/kg p.o.): 2.5 | VT, mean value of indices + SEM ([2]; 0.5 mg/kg p.o.): 2.5 | Death rate % ([2]; 1.0 mg/kg p.o.): 33.3% | EBs, mean value of indices + SEM ([2]; 1.0 mg/kg p.o.): 22.0 | VF % ([2]; 1.0 mg/kg p.o.): 100% | VF, mean value of indices + SEM ([2]; 1.0 mg/kg p.o.): 0.9 | VT, mean value of indices + SEM ([2]; 1.0 mg/kg p.o.): 0.5 | Death rate % ([2]; 2.0 mg/kg p.o.): 25.0% | EBs, mean value of indices + SEM ([2]; 2.0 mg/kg p.o.): 31.9 | VF % ([2]; 2.0 mg/kg p.o.): 75% | VF, mean value of indices + SEM ([2]; 2.0 mg/kg p.o.): 1.2 | VT, mean value of indices + SEM ([2]; 2.0 mg/kg p.o.): 0.7 | AUC ([4]; po, same dose, read-out: AUC (converted)): 1280 ng·h/mL | Cmax ([4]; oral, read-out: maximum concentration (Cmax)): 220 ng/mL | Cerebral content of Ca++ ([5]; 1 mg/kg p.o.): 18.4 ± 7.04 mmol · kg^-1 dry weig | Cerebral content of K+ ([5]; 1 mg/kg p.o.): 460.0 ± 18.96 mmol · kg^-1 dry weig | Cerebral content of Ca++ ([5]; 3 mg/kg p.o.): 19.4 ± 5.0 mmol · kg^-1 dry weig | Cerebral content of H2O ([5]; 3 mg/kg p.o.): 79.2 ± 0.42% | overall activity in cerebral oligoemia [5]: fail | EC50 [1, 8]: 100 µM

COc1ccc([C@@H]2Sc3ccccc3N(CCN(C)C)C(=O)[C@@H]2OC(C)=O)cc1 [diltiazem, reference compound]
Death rate % [6]: 27.3% | EBs, mean value of indices + SEM [6]: 68.9 ± 32.12 | VF % [6]: 45.5% | VF, mean value of indices + SEM [6]: 8.8 ± 4.64 | VT, mean value of indices + SEM [6]: 4.2 ± 2.54 | overall activity in cerebral oligoemia [5]: good activity

COc1ccc(CCN(C)CCCC(C#N)(c2ccc(OC)c(OC)c2)C(C)C)cc1OC (stereo not drawn) [verapamil]
overall activity in cerebral oligoemia [5]: good activity

COCCOC(=O)C1=C(C)NC(C)=C(C(=O)OC(C)C)C1c1cccc([N+](=O)[O-])c1 (stereo not drawn) [nimodipine]
Cerebral content of K+ ([5]; 0.5 mg/kg p.o.): 442.0 ± 22.40 mmol · kg^-1 dry weig | Cerebral content of H2O ([5]; 1.5 mg/kg p.o.): 79.3 ± 0.40% | overall activity in cerebral oligoemia [5]: fail | EC50 [1, 8]: 100 µM | EC50 [1, 7]: 100 µM
